Patent publication US20230043518A1, “CANCER IMMUNOTHERAPY” (AXELIA ONCOLOGY PTY LTD, priority 2019, published 2023)

Test system: 4T1.2 (breast cancer)
Test: 4T1.2 breast cancer metastasis model
Assay type: in vivo, mouse
Conditions: compound 1 combined with anti-PD1 (data not shown)
Protocol: C57BL/6 or Balb/c Wild-type (WT) mice were purchased from Walter and Eliza Hall Institute for Medical Research or bred in house and maintained at the QIMR Berghofer Medical Research Institute. Mice greater than 8 weeks of age were sex-matched to the appropriate models. In all studies, no mice were excluded based on pre-established criteria and randomization was applied immediately prior to treatment in therapy experiments. Experiments were conducted as approved by the QIMR Berghofer Medical Research Institute Animal Ethics Committee.
Mouse B16F10 (melanoma), MC38 (colon adenocarcinoma) and 4T1.2 (breast cancer) cells were grown in Dulbecco's Modified Eagle Medium (DMEM) supplemented with 10% Fetal Calf Serum (Bovogen), 1% Glutamine (Gibco), and 1% Penicillin/Streptomycin (Gibco). B16F10 and 4T1.2 cells were maintained at 37° C., 5% CO2. MC38 cells were maintained at 37° C., 10% CO2. All cell lines were routinely tested negative for Mycoplasma, but cell line authentication was not routinely performed.
5×10^4 4T1.2 cells were injected into the 4th mammary fat pad in a volume of 50 μl (day 0). On day 12 after injection, primary tumours were surgically removed under isoflurane anesthesia. Mice were injected treated as indicated in figure legends on day 15, 18 and 21 after tumour cell injection. […] For this, macroscopic visible lung metastases were counted. […]

Structure (SMILES): CCCCCCCCCCCCCCCC(=O)OCC(CSCC(N)C(=O)N[C@@H](CO)C(=O)NCCOCCOCCOCCOCCOCCOCCOCCOCCOCCOCCOCCOCCC(=O)NCC(N)=O)OC(=O)CCCCCCCCCCCCCCC (stereo partly shown) [compound 1]
- weight loss: without affecting weight loss
